No end group written: not given here.
Key:
[1] = tested on: Mebus strain of bovine coronavirus; assay: Inhibition of bovine coronavirus replication in MDBK cells (CPE, viral RNA RT-qPCR); type: cell-based; conditions: MOI 0.01, 120 hours
Experimental: To evaluate the antiviral effect of this peptide, bovine kidney cells known as MDBK were seeded in 24-well plates, at 280,000 cells per well, in DMEM culture medium with 10% fetal calf serum (FBS). The plates were incubated in a humid environment at 37° C. and 5% CO2. […] Once this treatment time elapsed, the culture medium was removed and the cells were infected with the Mebus strain of bovine coronavirus for 1 hour, in 200 μL of serum-free DMEM medium, at a multiplicity of infection (MOI) of 0.01 in a humid environment at 37° C. and 5% CO2. Subsequently, the volume of each well was brought up to 1 mL with serum-free DMEM medium in the presence of the peptide. Incubation for 120 hours was carried out, and cell-culture viability was evaluated by the method of metabolic reduction of MTT. To do this, the culture medium was removed. Two-hundred microliters of MTT were added to each well, and the plate was incubated for 2 to 4 hours at 37° C., 5% CO2 and 95% humidity. Subsequently, 300 μL of isobutyl alcohol were added and the plate was shaken for 1 hour. As an alternative to the MTT method, cells were stained with crystal violet (0.1%). Finally, the absorbance in each well was determined at 570 nm in a plate reader (Amersham). The antiviral effect was expressed as percent of inhibition of the cytopathic effect (CPE) (FIG. 1A) and inhibition of viral RNA (FIG. 1B) by RT-qPCR.

[2] = tested on: vimentin intermediate filaments; assay: Immunodetection of vimentin intermediate filaments in MDBK cells; type: cell-based, bovine; conditions: 100 μM, 24 hours
Experimental: (§1) They were then fixed and permeabilized in a solution of acetone:methanol (1:1 V/V) for 10 min at −20° C. and blocked with 1% bovine serum albumin in phosphate buffered saline for 30 min, at 37° C. Vimentin intermediate filaments were detected using a murine anti-vimentin IgG1 monoclonal antibody (4.5 μg/mL) followed by an anti-mouse antibody conjugated to fluorescein isothiocyanate (1/200). Vimentin intermediate filaments (FI) were observed distributed throughout the cytoplasm, from the perinuclear region towards one or both poles of the cell.

[3] = tested on: vimentin intermediate filaments; assay: Immunodetection of vimentin intermediate filaments in VeroE6 cells; type: cell-based, African green monkey; conditions: 100 μM, 24 hours
Experimental: as §1

[4] = target: T1, ZIKV E protein (Zika) (Zika virus, UniProt A0A024B7W1); assay: BIACORE surface plasmon resonance interaction with immobilized peptide; type: binding
T1 construct: the envelope protein of the Zika virus (ZIKV E)
T1 sequence (A0A024B7W1 291-794): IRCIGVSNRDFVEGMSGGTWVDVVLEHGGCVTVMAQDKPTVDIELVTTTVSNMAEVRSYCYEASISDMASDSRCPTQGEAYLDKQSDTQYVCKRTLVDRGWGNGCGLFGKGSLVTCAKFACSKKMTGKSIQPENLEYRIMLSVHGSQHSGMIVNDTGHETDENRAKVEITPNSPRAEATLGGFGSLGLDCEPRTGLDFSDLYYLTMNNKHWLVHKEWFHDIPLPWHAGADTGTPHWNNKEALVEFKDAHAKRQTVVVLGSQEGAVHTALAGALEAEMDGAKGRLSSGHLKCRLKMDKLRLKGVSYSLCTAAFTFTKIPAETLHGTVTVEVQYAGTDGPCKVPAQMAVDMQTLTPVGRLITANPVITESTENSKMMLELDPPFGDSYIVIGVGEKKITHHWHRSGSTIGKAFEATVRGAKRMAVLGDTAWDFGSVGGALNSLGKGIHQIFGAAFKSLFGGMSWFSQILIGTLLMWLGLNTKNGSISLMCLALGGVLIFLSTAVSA

[5] = target: T2, NS1-D2 (Dengue) (Dengue virus type 2, UniProt P29990); assay: as above; type: binding, Dengue virus 2
T2 construct: the non-structural protein 1 of the Dengue virus 2 (NS1-D2)
T2 sequence (P29990 776-1127 limits assumed): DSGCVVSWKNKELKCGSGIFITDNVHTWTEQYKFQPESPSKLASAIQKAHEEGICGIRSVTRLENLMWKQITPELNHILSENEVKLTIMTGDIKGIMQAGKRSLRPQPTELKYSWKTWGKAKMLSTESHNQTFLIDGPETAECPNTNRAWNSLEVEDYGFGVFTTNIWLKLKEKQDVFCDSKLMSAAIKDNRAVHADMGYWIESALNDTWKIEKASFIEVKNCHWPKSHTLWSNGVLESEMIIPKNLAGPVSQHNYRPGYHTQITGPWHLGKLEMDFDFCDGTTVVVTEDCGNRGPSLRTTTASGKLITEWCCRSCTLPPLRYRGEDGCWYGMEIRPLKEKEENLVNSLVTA

[6] = target: T3, Dengue 2 virus capsid protein (Dengue virus type 2, UniProt P29990); assay: as above; type: binding
T3 construct: with the Dengue 2 virus capsid protein
T3 sequence (P29990 1-100 limits assumed): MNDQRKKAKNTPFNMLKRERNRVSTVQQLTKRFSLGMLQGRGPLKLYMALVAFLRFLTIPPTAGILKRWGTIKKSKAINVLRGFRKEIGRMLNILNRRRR

[7] = tested on: capsid protein of the Influenza H1N1 virus; assay: as above; type: binding
[8] = target: receptor binding-domain of the viral S protein (RBD) (Severe acute respiratory syndrome coronavirus 2, UniProt P0DTC2); assay: as above; set-up: species or system SARS-CoV-2
[9] = tested on: respiratory syncytial virus (RSV); assay: Respiratory syncytial virus replication in bronchial HAE (RT-qPCR); type: cell-based; conditions: 50 μM, 10 days
[10] = tested on: herpes simplex virus type 1 (HSV-1); assay: HSV-1 replication in primary explants of human nasal mucosa (qPCR); type: cell-based; conditions: 100 μM, 36 hours
Experimental: The replication of herpes simplex virus type 1 (HSV-1) was performed in primary explants of human nasal mucosa, according to Glorieux et al. (Glorieux et al. 2011, PLoS ONE, 6(7): e22160, doi: 10.1371/journal.pone.0022160). […] Afterwards, the cultures were washed and kept at 37° C. and 5% CO2 for 36 hours, in presence of the peptides in culture medium. The cultures were harvested, and HSV-1 was quantified by qPCR. The percentages of viral inhibition ranged from 70 to 92% in presence of the peptides (Table 5).

[11] = tested on: SARS-CoV-2; assay: Prophylaxis in healthy contacts of COVID-19 patients (RT-qPCR of nasopharyngeal swabs); type: in vivo, human; conditions: Group II, intranasal drops 14 μg/mL daily for 6 days
Experimental: Healthy individuals, contacts of COVID-19 patients, were included in this study. Two groups of 25 healthy individuals exposed to a similar risk of contagion (Group I and Group II) were analyzed. Group II was treated daily, for 6 days, with the peptide identified in the Sequence Listing as SEQ ID NO: 1 as intranasal drops, at a concentration of 14 μg/mL. Nasopharyngeal swab samples were collected for SARS-CoV-2 detection by RT-qPCR (Roche). Sampling was carried out at the beginning of the study and 7 days after it began.

[12] = tested on: SARS-CoV-2; conditions: 96 h, 50 μM
[13] = tested on: SARS-CoV-2; conditions: 72 h, 100 μM
[14] = in vitro; conditions: pig, PK15 cells

Sequence: RVTQMNLNDRLASLYDKV [SEQ ID NO: 1]
- antiviral effect on bovine coronavirus infection (inhibition of CPE, viral RNA) [1]: exerts an antiviral effect
- damage to cell integrity after treatment [2]: no damage to cell integrity was observed
- damage to cell integrity after treatment [3]: no damage to cell integrity was observed
- Kd [4]: 1590 nM
- Rmax [4]: 2.11 × 10^4 RU
- interaction [4]: showed interaction
- kd [4]: 0.00154 s⁻¹
- kon ([4]; read-out: ka): 965 M⁻¹ s⁻¹
- Kd [5]: 769 nM
- Rmax [5]: 1.86 RU
- interaction [5]: showed interaction
- kd [5]: 1.02e-05 s⁻¹
- kon ([5]; read-out: ka): 13.3 M⁻¹ s⁻¹
- Kd [6]: 1.67 nM
- Rmax [6]: 409 RU
- interaction [6]: concentration dependent interaction
- kd [6]: 0.000413 s⁻¹
- kon ([6]; read-out: ka): 247000 M⁻¹ s⁻¹
- Kd [7]: 769 nM
- interaction [7]: showed interaction
- interaction [8]: neither the RBD nor the ACE2 peptide interact
- Sincitial respiratory virus Inhib. % [9]: 80%
- Herpes simplex HSV-1 Inhib. % [10]: 92%
- SARS-CoV-2 positive cases (%) ([11]; Day 7): 3.9%
- SARS-CoV-2 positive cases/Total ([11]; Day 7): 1/25
- SARS-CoV-2 positive cases (%) ([11]; Day of onset): 0%
- SARS-CoV-2 positive cases/Total ([11]; Day of onset): 0/25
- Inhibition % [12]: 83.3%
- Bronchial HAE Inhibition % [13]: 84%
- Nasal HAE Inhibition % [13]: 74%
- CC50 at 96 h [14]: > 400000 nM

Reference: US20250282828A1, “PEPTIDES FOR THE TREATMENT OF RESPIRATORY INFECTIONS OF VIRAL ORIGIN” (CENTRO DE INGENIERÍA GENÉTICA Y BIOTECNOLOGÍA, priority 2020, published 2025)
